The source of these data is patent US12479816B2, “20-HETE formation inhibitors” (UNIVERSITY OF PITTSBURGH—OF THE COMMONWEALTH SYSTEM OF …, priority 2019, dated 2025).

The target of one series is T1, rCYP4F2 (Homo sapiens, UniProt P78329).
T1 sequence (P78329 5-520): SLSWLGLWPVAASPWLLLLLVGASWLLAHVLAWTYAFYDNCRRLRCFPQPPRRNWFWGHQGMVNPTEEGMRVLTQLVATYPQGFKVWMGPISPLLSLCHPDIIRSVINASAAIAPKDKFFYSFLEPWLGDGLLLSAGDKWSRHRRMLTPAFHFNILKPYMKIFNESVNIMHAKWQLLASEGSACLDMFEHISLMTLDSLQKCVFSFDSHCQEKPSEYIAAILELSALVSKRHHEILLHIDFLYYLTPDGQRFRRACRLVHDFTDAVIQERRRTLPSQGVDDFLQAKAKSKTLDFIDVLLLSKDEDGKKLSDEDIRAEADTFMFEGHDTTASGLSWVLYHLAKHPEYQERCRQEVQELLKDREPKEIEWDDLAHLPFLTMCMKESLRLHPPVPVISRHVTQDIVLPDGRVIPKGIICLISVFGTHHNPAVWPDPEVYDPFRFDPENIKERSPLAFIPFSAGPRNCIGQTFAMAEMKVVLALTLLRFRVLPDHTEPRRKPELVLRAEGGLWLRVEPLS
The experiment in a line: Inhibition of 20-HETE formation at 250 or 500 nM in rCYP4F2 incubations. Type of series: biochemical. The note with it: rCYP4F2 25 pmol/mL; for inhibition at 0.25 µM: 250 nM compound, read-out: rCYP4F2 % inh. @ 250 nM; for inhibition at 0.5 µM: 500 nM compound, read-out: rCYP4F2 % inh. @ 500 nM. The procedure, abridged:
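Microsomes (300 μg/ml) or rCYP4F2 (25 pmol/mL) were incubated with 100 μM arachidonic acid, 1 mM NADPH and test compound in 0.12 M potassium phosphate with 5 mM MgCl2 for 20 min at 37° C. 20-HETE was quantified by UPLC-MS/MS with 20-HETE-d6 internal standard and expressed as percent of vehicle (n=3).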

Another series deals with MDR1 (P-gp). The series is described as follows: BBB penetration potential, MDR1-MDCK permeability. The note with it: dog; for Papp A→B at 120 min, 5 μM: apical to basolateral, pH 7.4, read-out: BBB penetration potential MDCK A-B 10−6 cm/s; for Papp B→A at 120 min, 5 μM: basolateral to apical, pH 7.4, read-out: BBB penetration potential MDCK B-A 10−6 cm/s. Type of series: in vitro ADME. Here is the method:
BBB penetration potential assessment data in Table 1 was obtained as follows. MDR1-MDCK cell monolayers were grown to confluence on collagen-coated, microporous membranes in 12-well assay plates. Atenolol, propranolol and digoxin were used as control to assess plate quality. The permeability assay buffer was Hanks' balanced salt solution containing 10 mM HEPES and 15 mM glucose at a pH of 7.4. The buffer in the receiver chamber also contained 1% bovine serum albumin. The dosing solution concentration was 5 μM of test article in the assay buffer. Cell monolayers were dosed on the apical side (A-to-B) or basolateral side (B-to-A) and incubated at 37° C. with 5% CO2 in a humidified incubator. Samples were taken from the donor and receiver chambers at 120 minutes. Each determination was performed in duplicate the flux of lucifer yellow was also measured post-experimentally for each monolayer to ensure no damage was inflicted to the cell monolayers during the flux period. All samples were assayed by LC-MS/MS using electrospray ionization using a PE SCIEX API 4000 spectrometer and total run time of 1 min. Analytical method/conditions were: Liquid Chromatography Column: Waters ACQUITY UPLC BEH Phenyl 30×2.1 mm, 1.7 m; M.P. Buffer: 25 mM ammonium formate buffer, pH 3.5; Aqueous Reservoir (A): 90% water, 10% buffer; Organic Reservoir (B): 90% acetonitrile, 10% buffer; Flow Rate: 0.7 mL/minute; gradient program: 99% A (t=0 min), 1% A (t=0.65 min), 1% A (t=0.75 min), 99% A (t=0.8 min), 99% A (t=1 min); 5 μL injection volume
The apparent permeability (Papp) and percent recovery were calculated as follows: Papp=(dCr/dt)×Vr/(A×CA) (1) Percent Recovery=100×((Vr×Cr^final)+(Vd×Cd^final))/(Vd×CN) (2)
wherein: • dCr/dt is the slope of the cumulative concentration in the receiver compartment versus time in μMs^−1; • Vr is the volume of the receiver compartment in cm^3; • Vd is the volume of the donor compartment in cm^3; • A is the area of the insert (1.13 cm^2 for 12-well); • CA is the average of the nominal dosing concentration and the measured 120 minute donor concentration in μM; • CN is the nominal concentration of the dosing solution in μM; • Cr^final is the cumulative receiver concentration in μM at the end of the incubation period; • Cd^final is the concentration of the donor in μM at the end of the incubation period. Efflux ratio (ER) is defined as Papp (B-to-A)/Papp (A-to-B) Interpretation Brain Penetration Potential Classification: • Papp (A-to-B)≥3.0 and ER<3.0: High • Papp (A-to-B)≥3.0 and 10>ER≥3.0: Moderate • Papp (A-to-B)≥3.0 and ER≥10, or Papp (A-to-B)<3.0 Low

On to `c1ccc(C2CCN(c3cn[nH]c3)CC2)cc1` [Compound 1, 4-Phenyl-1-(1H-pyrazol-4-yl)piperidine], for which the inhibition at 0.25 µM on rCYP4F2 was found to be 78.5%.

Take `c1ccc(CC2CCN(c3cn[nH]c3)CC2)cc1` [Compound 3, 4-Benzyl-1-(1H-pyrazol-4-yl)piperidine]: in the series with MDR1 (P-gp), the Papp A→B at 120 min, 5 μM was found to be 62 ×10⁻⁶ cm/s and the Papp B→A at 120 min, 5 μM worked out at 60 ×10⁻⁶ cm/s. Further, the inhibition at 0.5 µM on rCYP4F2 was 77%.

Turning to `COc1ccc(C2CCN(c3ccn[nH]3)CC2)cc1` [Compound 19, 4-(4-Methoxyphenyl)-1-(1H-pyrazol-5-yl)piperidine], the inhibition at 0.5 µM on rCYP4F2 was determined as 41.4%.

Regarding `COc1ccc(C2CCN(c3cn[nH]c3)CC2)cc1` [Compound 20, 4-(4-Methoxyphenyl)-1-(1H-pyrazol-4-yl)piperidine], in the series with MDR1 (P-gp), the Papp A→B at 120 min, 5 μM came out at 32 ×10⁻⁶ cm/s and the Papp B→A at 120 min, 5 μM is 25.7 ×10⁻⁶ cm/s. The inhibition at 0.5 µM on rCYP4F2 amounted to 67.7%.

Take `CC(=O)N(C)c1ccc(C2CCN(c3cn[nH]c3)CC2)cc1` [Compound 28, N-(4-(1-(1H-Pyrazol-4-yl)piperidin-4-yl)phenyl)-N-methylacetamide]: in the series with MDR1 (P-gp), the Papp A→B at 120 min, 5 μM turned out to be 18.4 ×10⁻⁶ cm/s and the Papp B→A at 120 min, 5 μM worked out at 40.2 ×10⁻⁶ cm/s. In addition, on rCYP4F2, the inhibition at 0.5 µM amounted to 58%.

With `Cc1cccc(C2CCN(c3cn[nH]c3)CC2)c1` [Compound 34, 1-(1H-Pyrazol-4-yl)-4-(m-tolyl)piperidine], in the series on MDR1 (P-gp), the Papp A→B at 120 min, 5 μM amounted to 60.1 ×10⁻⁶ cm/s and the Papp B→A at 120 min, 5 μM came out at 48.6 ×10⁻⁶ cm/s. The inhibition at 0.5 µM on rCYP4F2 came to 86%.

With `c1ccc(C2CCN(c3ccn[nH]3)CC2)cc1` [Compound 54, 4-Phenyl-1-(1H-pyrazol-5-yl)piperidine], at rCYP4F2, the inhibition at 0.25 µM was found to be 53.6%.

`O=C1CCCN1Cc1ccc(C2CCN(c3cn[nH]c3)CC2)cc1` [Compound 83, 1-(4-(1-(1H-Pyrazol-4-yl)piperidin-4-yl)benzyl)pyrrolidin-2-one]: in the series with MDR1 (P-gp), the Papp A→B at 120 min, 5 μM turned out to be 5.16 ×10⁻⁶ cm/s and the Papp B→A at 120 min, 5 μM turned out to be 41.6 ×10⁻⁶ cm/s. The inhibition at 0.5 µM at rCYP4F2 stood at 96.2%.

As to `Clc1ccc(CC2CCN(c3cn[nH]c3)CC2)cc1` [Compound 93, 4-(4-Chlorobenzyl)-1-(1H-pyrazol-4-yl)piperidine], in the series on MDR1 (P-gp), the Papp A→B at 120 min, 5 μM amounted to 44.3 ×10⁻⁶ cm/s and the Papp B→A at 120 min, 5 μM came to 40 ×10⁻⁶ cm/s. Also, the inhibition at 0.5 µM at rCYP4F2 came out at 97%.

Regarding `O=C1CCCN1c1ccc(C2CCN(c3cn[nH]c3)CC2)cc1` [Compound 100, 1-(4-(1-(1H-Pyrazol-4-yl)piperidin-4-yl)phenyl)pyrrolidin-2-one], in the series on MDR1 (P-gp), the Papp A→B at 120 min, 5 μM came out at 22.2 ×10⁻⁶ cm/s and the Papp B→A at 120 min, 5 μM worked out at 46.9 ×10⁻⁶ cm/s. Besides, the inhibition at 0.5 µM at rCYP4F2 worked out at 81.2%.
